Experimental findings from ChEMBL document CHEMBL1129300, “Conformationally constrained analogues of diacylglycerol. 12. Ultrapotent protein kinase C ligands based on a chiral 4,4-disubstituted heptono-1,4-lactone template” (J Med Chem, 1996) are described below.

This assay concerns the target Protein kinase C alpha type (Homo sapiens, UniProt P17252). The assay can be described thus: Displacement of [3H-20]-PDBU from recombinant Protein kinase C alpha.

One may read the Ki as a dissociation constant, usually derived from enzyme kinetics or from competition with a known ligand. Turning to `CCCCCCCC/C=C\CCCCCCCC/C=C1/C[C@@](CO)(COC(C)=O)OC1=O`, the inhibition constant (Ki) stood at 12 nM.

Turning to `CCCCCCCC/C=C\CCCCCCCC/C=C1\C[C@@](CO)(COC(C)=O)OC1=O`, the inhibition constant (Ki) came to 13 nM.

Consider `CCCCCCCC/C=C\CCCCCCCC/C=C1/C[C@](/C=C/C(=O)OC)(CO)OC1=O`, for which the inhibitory constant (Ki) is 11 nM.

Turning to `CCCCCCCC/C=C\CCCCCCCC/C=C1\C[C@](/C=C/C(=O)OC)(CO)OC1=O`, the Ki is 20 nM.
